Laboratory results published in BindingDB's records for patent US20250270222 (Satellos Bioscience, 2025).

Key:
[1] = target: T1, BMP-2-inducible protein kinase [38-345,K320A,K321A] (Human, UniProt Q9NSY1, K320A/K321A); assay: BIKE pSENs Assay
T1 construct: 38-345
Method: BIKE protein was dissolved at 20 nM in 1× enzyme solution (50 mM HEPES pH7.5, 10 mM MgCl2, 1 mM DTT, 1% glycerol, 0.5 mM EGTA, 0.01% Briji35, 0.02% BSA) and 12.5 ul was incubated with 250 nl DMSO or 250 nl compound in DMSO at 25° C. for 15 min. The reaction was started by addition of 12.5 ul of 30 uM AQT0759 (Assayquant, CSKS-AQT0759B) and 40 uM ATP which were diluted in 1× substrate dilution buffer (50 mM HEPES pH7.5, 10 mM MgCl2. 1 mM DTT, 1% glycerol, 0.5 mM EGTA, 0.01% Briji35).

[2] = target: T2, Cyclin-G-associated kinase [25-335] (Human, UniProt O14976); assay: GAK pSENs Assay
T2 construct: 25-335
T2 sequence (O14976 whole entry): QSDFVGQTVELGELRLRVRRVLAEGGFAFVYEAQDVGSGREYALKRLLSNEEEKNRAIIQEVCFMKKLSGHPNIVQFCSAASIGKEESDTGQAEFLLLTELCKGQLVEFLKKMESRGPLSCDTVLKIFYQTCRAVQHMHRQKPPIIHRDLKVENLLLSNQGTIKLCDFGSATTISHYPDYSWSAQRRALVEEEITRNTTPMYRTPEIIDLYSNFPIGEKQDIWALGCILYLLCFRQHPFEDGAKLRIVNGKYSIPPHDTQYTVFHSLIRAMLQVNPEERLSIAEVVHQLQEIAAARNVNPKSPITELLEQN
From the text: This example describes one illustrative method for determining the IC50 of the compounds of the present invention against GAK (amino acids Q25-N335).

T1 sequence (Q9NSY1 38-345 K320A/K321A): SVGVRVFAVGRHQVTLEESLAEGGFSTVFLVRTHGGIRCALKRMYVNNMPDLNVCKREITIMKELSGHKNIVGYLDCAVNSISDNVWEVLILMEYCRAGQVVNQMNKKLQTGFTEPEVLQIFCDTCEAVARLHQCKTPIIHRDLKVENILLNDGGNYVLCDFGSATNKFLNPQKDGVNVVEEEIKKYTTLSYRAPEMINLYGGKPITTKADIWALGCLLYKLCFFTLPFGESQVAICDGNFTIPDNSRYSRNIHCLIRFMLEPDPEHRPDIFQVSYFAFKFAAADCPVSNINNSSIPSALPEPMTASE

In the case of `CN(CCN1C[C@@H](OC(=O)N2CCN(c3ccn4ncc(-c5cccnc5OC5CC5)c4n3)CC2)CC1=O)C(=O)OC(C)(C)C` [US20250270222, Compound I-35], the IC50 [1] is reported as > 1.5 µM and the IC50 [2] is reported as > 1.5 µM.
